Measurements reported in ChEMBL document CHEMBL1201862, “PubChem BioAssay data set” (2004).
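Briefly, cells in 96-well plates were exposed to five compound concentrations for 48 h, and endpoints were estimated by linear interpolation. GI50 is the concentration that inhibits growth by half.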 Active and inactive are the calls of the source. No stated cut-off is given here; in the data, active = GI50 up to about 1.1 µM and inactive = higher.

Tests used:
Assay in all cases: NCI tumour cell line growth inhibition, 48 h
IGROV-1 = test system: IGROV-1
SR = test system: SR
A498 = test system: A498
NCI/ADR-RES = test system: NCI/ADR-RES
UACC-62 = test system: UACC-62
CCRF-CEM = test system: CCRF-CEM
K562 = test system: K562
MDA-N = test system: MDA-N
MDA-MB-435 = test system: MDA-MB-435
SK-MEL-28 = test system: SK-MEL-28
LOX IMVI = test system: LOX IMVI
SW-620 = test system: SW-620
COLO 205 = test system: COLO 205
SNB-19 = test system: SNB-19
TK-10 = test system: TK-10
NCI-H522 = test system: NCI-H522
OVCAR-8 = test system: OVCAR-8
SK-MEL-2 = test system: SK-MEL-2
NCI-H226 = test system: NCI-H226
MDA-MB-231 = test system: MDA-MB-231

Compound | GI50 (IGROV-1) | GI50 (SR) | GI50 (A498) | GI50 (NCI/ADR-RES) | GI50 (UACC-62) | GI50 (CCRF-CEM) | GI50 (K562) | GI50 (MDA-N) | GI50 (MDA-MB-435) | GI50 (SK-MEL-28) | GI50 (LOX IMVI) | GI50 (SW-620) | GI50 (COLO 205) | GI50 (SNB-19) | GI50 (TK-10) | GI50 (NCI-H522) | GI50 (OVCAR-8) | GI50 (SK-MEL-2) | GI50 (NCI-H226) | GI50 (MDA-MB-231)
O=c1[nH]c(=O)n(CCOc2ccc(Cl)cc2)cc1Nc1ccccc1 | > 100 µM (inactive) | > 100 µM (inactive) | > 100 µM (inactive) | > 100 µM (inactive) | > 100 µM (inactive) | > 100 µM (inactive) | > 100 µM (inactive) | > 100 µM (inactive) | > 100 µM (inactive) | > 100 µM (inactive) | > 100 µM (inactive) | > 100 µM (inactive) | > 100 µM (inactive) | > 100 µM (inactive) |  |  |  |  |  | 
COC(=O)CC(NC(=O)OCc1ccccc1)C(C(C)=O)C(=O)OCc1ccccc1 (stereo not given) | > 31.6 µM (inactive) | > 100 µM (inactive) | > 31.6 µM (inactive) |  | > 31.6 µM (inactive) | > 31.6 µM (inactive) | > 31.6 µM (inactive) |  |  | > 31.6 µM (inactive) | > 100 µM (inactive) | > 31.6 µM (inactive) | > 31.6 µM (inactive) | > 10 µM (inactive) | > 31.6 µM (inactive) | > 31.6 µM (inactive) | > 31.6 µM (inactive) | > 10 µM (inactive) | > 10 µM (inactive) | 
CC(=O)N[C@@H](Cc1ccc(O)cn1)C(=O)NCc1ccc(Cl)cc1 | > 100 µM (inactive) |  | > 100 µM (inactive) | > 100 µM (inactive) | > 100 µM (inactive) | 31.5 µM (inactive) | > 100 µM (inactive) | > 100 µM (inactive) | > 100 µM (inactive) | > 100 µM (inactive) | > 100 µM (inactive) | > 100 µM (inactive) | > 100 µM (inactive) | > 100 µM (inactive) | > 100 µM (inactive) | > 100 µM (inactive) | > 100 µM (inactive) | > 100 µM (inactive) | > 100 µM (inactive) | 
CC1=Nc2c(ccc3c2C(=O)c2ccccc2C3=O)NC(c2ccncc2)C1 (stereo not given) | 4.94 µM (inactive) | 0.135 µM (active) | 23.8 µM (inactive) |  | 62.4 µM (inactive) | 0.515 µM (active) | > 100 µM (inactive) |  |  | > 10 µM (inactive) | 34.8 µM (inactive) | 52.5 µM (inactive) | > 10 µM (inactive) | > 10 µM (inactive) | > 100 µM (inactive) | 6.82 µM (inactive) | 8.55 µM (inactive) | > 10 µM (inactive) | > 10 µM (inactive) | 
COc1ccc(C)cc1NC(=S)N/N=C/c1ccc(SC)cc1 | 42.8 µM (inactive) | 38.5 µM (inactive) | > 100 µM (inactive) | 60.1 µM (inactive) | > 100 µM (inactive) | 54.8 µM (inactive) | 35.4 µM (inactive) | 36.3 µM (inactive) | 38.4 µM (inactive) | 86.7 µM (inactive) | 59.6 µM (inactive) | 53.8 µM (inactive) | 40.1 µM (inactive) | > 100 µM (inactive) |  | 82.2 µM (inactive) | 57.1 µM (inactive) | 55.6 µM (inactive) |  | 
COC(=O)C(Cc1nc2ccc(Cl)cc2nc1O)C(=O)C(=O)Nc1ccccc1[N+](=O)[O-] (stereo not given) | > 100 µM (inactive) | > 100 µM (inactive) | > 100 µM (inactive) |  | > 100 µM (inactive) | > 100 µM (inactive) | > 100 µM (inactive) |  |  | > 100 µM (inactive) | > 100 µM (inactive) | > 100 µM (inactive) | > 100 µM (inactive) | > 100 µM (inactive) | > 100 µM (inactive) | > 100 µM (inactive) | > 100 µM (inactive) | > 100 µM (inactive) | > 100 µM (inactive) | 
CC1(C)COC(c2ccc(C(F)(F)F)cc2C(O)c2ccc3ccccc3c2)=N1 (stereo not given) | > 10 µM (inactive) | > 10 µM (inactive) | > 10 µM (inactive) |  | > 10 µM (inactive) | > 10 µM (inactive) | > 10 µM (inactive) |  |  | > 10 µM (inactive) | > 10 µM (inactive) | > 10 µM (inactive) | > 10 µM (inactive) | 57.8 µM (inactive) | > 10 µM (inactive) | > 10 µM (inactive) | > 10 µM (inactive) | > 10 µM (inactive) | 51.3 µM (inactive) | 
O=C1c2ccccc2C(=O)c2sc(Nc3ccc(Cl)cc3)nc21 | 2.44 µM (inactive) | 1.86 µM (inactive) | 16.1 µM (inactive) |  | 1.85 µM (inactive) | 1.32 µM (inactive) | 1.96 µM (inactive) |  |  | 1.66 µM (inactive) | 1.59 µM (inactive) | 1.09 µM (active) | 7.16 µM (inactive) | 5.73 µM (inactive) | 5.89 µM (inactive) | 1.61 µM (inactive) | 1.75 µM (inactive) | 3.67 µM (inactive) | 7.53 µM (inactive) | 
CC(C)(C)NC(=O)N1N=C(c2ccccc2)C1c1ccccc1 (stereo not given) | 59.8 µM (inactive) |  | > 100 µM (inactive) | 35.2 µM (inactive) | 52.6 µM (inactive) | 22.6 µM (inactive) |  | 44.6 µM (inactive) |  | 48.3 µM (inactive) | 35.7 µM (inactive) | 31.1 µM (inactive) | 35.7 µM (inactive) | 34.3 µM (inactive) | 26 µM (inactive) | 19.6 µM (inactive) | 40.2 µM (inactive) |  | 48.4 µM (inactive) | 95.9 µM (inactive)
